The values below come from ChEMBL document CHEMBL3045439, “Isoforms of the heteropteran Nezara viridula ecdysone receptor: protein characterisation, RH5992 insecticide binding and homology modelling” (Pest Manag Sci, 2011).

What all share (format): protein-complex assay
In assay [1] the target is T1, Ecdysone receptor (Nezara viridula, UniProt E5L6Y0+E5L6Y1).
T1 sequence (E5L6Y1 whole entry): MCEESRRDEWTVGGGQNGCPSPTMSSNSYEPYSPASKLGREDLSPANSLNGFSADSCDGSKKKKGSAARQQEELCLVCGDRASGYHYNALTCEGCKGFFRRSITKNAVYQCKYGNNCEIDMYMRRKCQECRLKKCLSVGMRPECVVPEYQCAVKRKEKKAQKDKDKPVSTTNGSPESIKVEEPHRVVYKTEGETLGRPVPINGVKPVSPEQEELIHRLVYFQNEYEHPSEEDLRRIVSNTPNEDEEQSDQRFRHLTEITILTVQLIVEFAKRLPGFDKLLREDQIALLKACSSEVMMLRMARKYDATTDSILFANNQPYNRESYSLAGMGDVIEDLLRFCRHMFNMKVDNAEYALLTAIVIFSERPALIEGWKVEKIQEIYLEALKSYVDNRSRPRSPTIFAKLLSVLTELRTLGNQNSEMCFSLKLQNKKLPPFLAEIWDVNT
T1 sequence (E5L6Y0 whole entry): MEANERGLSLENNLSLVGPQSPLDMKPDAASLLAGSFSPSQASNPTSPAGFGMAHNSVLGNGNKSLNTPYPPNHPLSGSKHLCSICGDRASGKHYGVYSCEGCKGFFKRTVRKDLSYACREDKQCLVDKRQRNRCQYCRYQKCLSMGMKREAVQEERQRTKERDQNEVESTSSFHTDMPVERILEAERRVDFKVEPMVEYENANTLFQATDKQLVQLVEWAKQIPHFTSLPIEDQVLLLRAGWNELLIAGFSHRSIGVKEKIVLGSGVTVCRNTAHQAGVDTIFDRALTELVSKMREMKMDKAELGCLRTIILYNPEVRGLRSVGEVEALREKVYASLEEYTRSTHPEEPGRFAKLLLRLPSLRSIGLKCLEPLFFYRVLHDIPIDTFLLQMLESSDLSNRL
The assay is described as follows: Displacement of [3H]PonA from recombinant Nezara viridula EcR11. (Displacement assays read how much labelled ligand stays bound in the presence of the test substance.)

The target of assay [2] is T1, Ecdysone receptor. Description: Displacement of [3H]PonA from recombinant Nezara viridula EcR10.
For assay [3], the target named is T1, Ecdysone receptor. Description: Binding affinity to Nezara viridula EcR.
Assay [4] has as its target T1, Ecdysone receptor. Description: Binding affinity to Nezara viridula EcR11.
Assay [5] deals with T2, Ecdysone receptor (Myzus persicae, UniProt A3EZJ9+A3EZK0).
T2 sequence (A3EZJ9 whole entry): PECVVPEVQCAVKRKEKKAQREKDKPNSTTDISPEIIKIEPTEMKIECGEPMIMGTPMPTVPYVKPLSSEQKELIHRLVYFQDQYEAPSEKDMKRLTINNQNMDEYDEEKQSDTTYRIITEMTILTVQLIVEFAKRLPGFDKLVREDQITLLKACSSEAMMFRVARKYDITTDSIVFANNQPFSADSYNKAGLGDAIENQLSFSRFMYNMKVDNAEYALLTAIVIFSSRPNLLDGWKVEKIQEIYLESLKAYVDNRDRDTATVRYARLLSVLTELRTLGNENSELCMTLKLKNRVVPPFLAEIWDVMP
T2 sequence (A3EZK0 whole entry): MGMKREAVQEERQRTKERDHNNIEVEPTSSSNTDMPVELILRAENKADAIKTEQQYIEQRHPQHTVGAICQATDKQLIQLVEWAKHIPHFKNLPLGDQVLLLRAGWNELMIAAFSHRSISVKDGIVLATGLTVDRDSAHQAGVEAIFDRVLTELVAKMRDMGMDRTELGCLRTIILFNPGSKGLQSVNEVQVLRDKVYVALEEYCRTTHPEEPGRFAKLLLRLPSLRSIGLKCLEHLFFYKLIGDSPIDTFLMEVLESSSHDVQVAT
The assay is described as follows: Binding affinity to Myzus persicae EcR (green peach aphid).

The target in assay [6] is T3, Ecdysone receptor (Chilo suppressalis, UniProt Q8I1M8+Q8MYA6).
T3 sequence (Q8MYA6 whole entry): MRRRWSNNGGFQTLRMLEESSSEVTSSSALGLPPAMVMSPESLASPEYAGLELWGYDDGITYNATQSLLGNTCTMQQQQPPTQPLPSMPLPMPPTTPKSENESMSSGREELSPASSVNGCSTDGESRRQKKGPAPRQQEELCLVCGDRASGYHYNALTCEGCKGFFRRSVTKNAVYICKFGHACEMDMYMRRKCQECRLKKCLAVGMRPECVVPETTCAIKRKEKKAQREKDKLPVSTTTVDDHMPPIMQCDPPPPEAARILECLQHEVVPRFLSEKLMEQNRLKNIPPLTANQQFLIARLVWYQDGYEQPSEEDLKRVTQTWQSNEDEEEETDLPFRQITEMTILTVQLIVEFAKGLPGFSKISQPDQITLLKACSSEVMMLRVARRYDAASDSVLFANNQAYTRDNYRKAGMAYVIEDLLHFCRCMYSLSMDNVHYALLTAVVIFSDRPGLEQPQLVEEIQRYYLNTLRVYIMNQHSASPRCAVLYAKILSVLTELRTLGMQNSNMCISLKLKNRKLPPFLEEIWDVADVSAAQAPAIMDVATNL
T3 sequence (Q8I1M8 whole entry): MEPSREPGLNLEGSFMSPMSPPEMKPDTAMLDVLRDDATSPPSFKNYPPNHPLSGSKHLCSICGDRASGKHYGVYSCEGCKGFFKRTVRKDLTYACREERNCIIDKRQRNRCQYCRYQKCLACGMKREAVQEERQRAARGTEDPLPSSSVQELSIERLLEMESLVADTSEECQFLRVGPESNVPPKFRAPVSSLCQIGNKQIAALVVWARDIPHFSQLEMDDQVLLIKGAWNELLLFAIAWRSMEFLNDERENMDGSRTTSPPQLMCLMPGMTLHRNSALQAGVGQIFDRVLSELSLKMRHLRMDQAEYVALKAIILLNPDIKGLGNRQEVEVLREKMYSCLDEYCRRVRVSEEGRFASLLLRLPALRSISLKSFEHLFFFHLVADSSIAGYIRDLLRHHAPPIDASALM
Description: Binding affinity to Chilo suppressalis (rice stem borer) EcR.

Regarding `CC(C)(O)CC[C@@H](O)[C@](C)(O)[C@H]1CC[C@@]2(O)C3=CC(=O)[C@@H]4C[C@@H](O)[C@@H](O)C[C@]4(C)[C@H]3CC[C@]12C` [20-HYDROXYECDYSONE], the IC50 was 4.5 µM on Ecdysone receptor [1], 3 µM at Ecdysone receptor [2] and 1.05 µM on Ecdysone receptor [3]. Besides, the Ki was determined as 3 µM on Ecdysone receptor [1] and 2.5 µM on Ecdysone receptor [2].

With `CCc1ccc(C(=O)NN(C(=O)c2cc(C)cc(C)c2)C(C)(C)C)cc1` [TEBUFENOZIDE], the figures for the IC50 at Ecdysone receptor [1] and at Ecdysone receptor [2] were 28 µM and 20 µM, respectively. In addition, the Ki was 23.9 µM at Ecdysone receptor [1]; 16.8 µM at Ecdysone receptor [2]; 25.1 µM at Ecdysone receptor [4]; 25.1 µM at Ecdysone receptor [3]; over 126 µM at Ecdysone receptor [5]; 0.00126 µM on Ecdysone receptor [6].

The IC50 is the concentration that inhibits the measured activity by half. The term Ki denotes a measure of affinity in units of concentration, obtained from inhibition or displacement.
